# Like-named read-outs stand apart in the source and are kept apart here.
# Columns and labels:
# [1] = test system: H3K27me3 mark in HeLa cells; assay: H3K27me3 Alpha Hela Assay (AlphaLISA); assay type: cell-based; conditions: 72 hrs incubation
# Method: H3K27me3 Alpha Hela Assay (AlphaLISA).
# Ten different doses of each test compound (in a series of 3-fold dilutions) were plated in duplicate 384-well tissue culture treated plates (Catalog #781080; Greiner Bio One; Monroe, N.C.). Hela cells grown in culture were trypsinized and counted using a Countess® cell counter (Catalog #C10281; Life Technologies, Grand Island, N.Y.). Cell were diluted to 67,000 cells per mL in 10% DMEM (Catalog #10569-010 Life Technologies, Grand Island, N.Y.) and 15 μL (1,000 cells) were plated into each well using the Biotek MicroFlo™ Select Dispenser (BioTek Instruments, Inc. Vermont, USA),) of the 384-well plate. Plates were incubated at 37° C./5% CO2 for 72 hrs. One of the duplicate plates was processed for HeLa assay and the other for viability.
# To the plate processed for AlphaLISA was added 5 μL per well Cell-Histone Lysis buffer (1×) (Catalog #AL009F1 Perkin Elmer; Waltham, Mass.) and the plate was incubated at RT for 30 minutes on a plate shaker with low speed (Model #4625-Q Thermo Scientific; Waltham, Mass.). Then, 10 μL per well Histone Extraction buffer (catalog #AL009F2; Perkin Elmer; Waltham, Mass.) was added and the plate further incubated at RT for 20 min on plate shaker with low speed. To each well was then added 10 μL per well of a 5× mix of anti-K27me3 acceptor beads plus Biotinylated anti-Histone H3 (C-ter) Antibody (diluted to 3 nM final) (Catalog #AL118 Perkin Elmer; Waltham, Mass.). Dilution of the acceptor beads and then anti-Histone H3 was with 1× Histone Detection buffer (Catalog #AL009F3 Perkin Elmer; Waltham, Mass.) which was produced diluted from the 10× stock provided. The plate was sealed with an aluminum plate sealer and incubated at 23° C. for 60 min. […] The plates were then read using an EnVision-Alpha Reader (model #2104 Perkin Elmer; Waltham, Mass.).
# Data from both assays was analyzed using Assay Assistant (Constellation Pharmaceuticals In-house product) and Activity Base (IDBS Ltd, Surrey, UK) template. […] Readout of DMSO wells were used to normalize the data. […]
# [2] = test system: H3K27me3 mark in HeLa cells; assay: H3K27me3 MSD Hela Assay; assay type: cell-based
# Method: Trypsinized HeLa cells were counted and diluted in 10% DMEM (Life Technologies, Cat. #10569) to 5000 cells/75 μL. Seventy-five μL of cells were place in each well of a 96-well flat-bottomed plate and incubated at 37° C. for 4 hours. Twenty-five μL of test compound (at various concentrations) was added to the cells and incubation continued at 37° C. for 96 hours. Media was then removed and the cells rinsed once with ice cold PBS. Forty μL of ice-cold MSD Buffer AT (10 mM HEPES, pH 7.9, 5 mM MgCl2, 0.25M sucrose, Benzonase (1:10000), 1% Triton X-100 supplemented with fresh 1× Protease Inhibitor cocktail and 1 mM 4-(2-Aminoethyl)benzenesulfonyl fluoride hydrochloride (AEBSF)) was added to each well and the plates placed on ice for 30 minutes. Ten μL of 5M NaCl was then added to each well and incubation on ice continued for another 15 minutes. The material in each well was suspended pipetting up and down and then transferred to a new 96 well plate. […]
# The antibody mix was then removed and the wells washed with Blocker A. One hundred-fifty μL of freshly prepared 1×MSD Read Buffer (Meso-Scale Discovery; Cat #R927C-2) was then added to each well and the plates read on a MSD Sector 2400 Plate Reader.
# Data was analyzed using Assay Assistant (Constellation Pharmaceuticals In-house product) and Activity Base (IDBS Ltd, Surrey, UK) template. […] Readout of DMSO wells were used to normalize the data. […]
# Y641N EZH2 = Y641N EZH2 (Homo sapiens, UniProt Q15910, Y641N); assay: Y641N EZH2 assay, H3K27Me2 oligonucleosomes as substrate; assay type: biochemical
# Chain of Y641N EZH2 (Q15910 whole entry Y641N): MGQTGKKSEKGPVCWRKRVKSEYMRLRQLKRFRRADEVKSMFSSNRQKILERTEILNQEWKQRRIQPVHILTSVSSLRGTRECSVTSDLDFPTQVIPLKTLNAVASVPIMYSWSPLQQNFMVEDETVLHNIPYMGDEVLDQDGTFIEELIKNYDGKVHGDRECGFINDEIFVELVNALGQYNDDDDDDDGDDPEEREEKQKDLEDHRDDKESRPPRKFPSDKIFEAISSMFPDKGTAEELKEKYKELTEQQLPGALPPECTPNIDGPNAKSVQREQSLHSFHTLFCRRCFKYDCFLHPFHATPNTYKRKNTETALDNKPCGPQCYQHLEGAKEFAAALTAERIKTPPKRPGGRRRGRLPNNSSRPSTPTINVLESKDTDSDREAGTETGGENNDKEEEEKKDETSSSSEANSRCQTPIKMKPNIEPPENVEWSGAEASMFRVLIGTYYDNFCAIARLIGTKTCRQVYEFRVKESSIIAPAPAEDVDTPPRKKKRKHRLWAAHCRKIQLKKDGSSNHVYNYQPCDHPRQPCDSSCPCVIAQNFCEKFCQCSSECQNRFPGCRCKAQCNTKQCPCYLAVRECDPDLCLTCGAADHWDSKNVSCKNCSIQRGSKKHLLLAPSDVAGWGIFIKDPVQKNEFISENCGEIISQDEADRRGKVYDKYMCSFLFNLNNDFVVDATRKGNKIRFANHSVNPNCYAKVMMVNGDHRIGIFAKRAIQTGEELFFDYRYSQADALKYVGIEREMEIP
# Chain of Y641N EZH2 (O75530 whole entry partner): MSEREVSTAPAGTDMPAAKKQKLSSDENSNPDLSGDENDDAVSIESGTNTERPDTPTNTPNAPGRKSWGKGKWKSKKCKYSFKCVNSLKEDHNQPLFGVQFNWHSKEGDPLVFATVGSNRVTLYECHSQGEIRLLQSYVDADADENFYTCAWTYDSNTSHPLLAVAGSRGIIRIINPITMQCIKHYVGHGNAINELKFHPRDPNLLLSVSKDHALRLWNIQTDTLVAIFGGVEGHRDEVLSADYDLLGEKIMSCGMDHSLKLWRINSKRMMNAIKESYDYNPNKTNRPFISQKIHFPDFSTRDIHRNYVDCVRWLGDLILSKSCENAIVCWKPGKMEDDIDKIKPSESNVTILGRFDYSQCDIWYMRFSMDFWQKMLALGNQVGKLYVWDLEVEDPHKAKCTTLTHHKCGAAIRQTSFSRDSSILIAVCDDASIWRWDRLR
# Chain of Y641N EZH2 (Q15022 whole entry partner): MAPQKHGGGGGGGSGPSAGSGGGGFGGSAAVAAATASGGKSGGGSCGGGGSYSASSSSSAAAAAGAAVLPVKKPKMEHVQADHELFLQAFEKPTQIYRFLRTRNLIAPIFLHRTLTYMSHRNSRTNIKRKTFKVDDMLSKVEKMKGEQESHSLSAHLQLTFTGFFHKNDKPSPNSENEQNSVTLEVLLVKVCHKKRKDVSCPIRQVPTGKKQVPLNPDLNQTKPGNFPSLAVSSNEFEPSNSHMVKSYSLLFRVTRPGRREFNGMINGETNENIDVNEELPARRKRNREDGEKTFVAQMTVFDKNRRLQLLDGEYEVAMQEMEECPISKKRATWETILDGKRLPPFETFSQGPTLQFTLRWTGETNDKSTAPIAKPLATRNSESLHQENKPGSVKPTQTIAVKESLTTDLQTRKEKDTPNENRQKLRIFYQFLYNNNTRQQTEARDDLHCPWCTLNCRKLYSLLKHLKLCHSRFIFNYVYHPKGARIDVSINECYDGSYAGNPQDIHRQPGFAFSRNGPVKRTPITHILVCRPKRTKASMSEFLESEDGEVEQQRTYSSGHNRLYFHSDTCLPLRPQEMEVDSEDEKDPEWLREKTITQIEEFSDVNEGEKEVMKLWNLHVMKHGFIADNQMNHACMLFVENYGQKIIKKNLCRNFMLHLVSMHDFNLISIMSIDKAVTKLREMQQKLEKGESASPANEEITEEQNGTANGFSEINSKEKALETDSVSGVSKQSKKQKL
# Method: (§1) Assays were carried out by mixing rPRC2 together with biotinylated oligonucleosome substrates in the presence of the radio-labeled enzyme co-factor, S-adenosyl-L-methionine (^3H SAM) (Perkin Elmer) and monitoring the enzymatically mediated transfer of tritiated methyl groups from ^3H SAM to histone lysine residues. The amount of resulting tritiated methyl histone product was measured by first capturing the biotinylated oligonucleosomes in streptavidin (SAV) coated FlashPlates (Perkin Elmer), followed by a wash step to remove un-reacted ^3H SAM, and then counting on a TopCount NXT 384 well plate scintillation counter (Perkin Elmer). The final assay conditions for EZH2 were as follows: 50 mM Tris Buffer pH 8.5, 1 mM DTT, 69 μM Brij-35 detergent, 5.0 mM MgCl2, 0.1 mg/mL BSA, 0.2 μM ^3H SAM, 0.2 μM biotinylated oligonucleosomes, 3.6 μM H3K27me3 peptide and 2 nM EZH2.
# (§2) A 12.5 μL volume of the HMT enzyme, H3K27me3 peptide and oligonucleosome substrate in assay buffer was added to each well of the assay plate using a Multidrop Combi (Thermo-Fisher). Compounds were pre-incubated with the enzyme for 20 min, followed by initiation of the methyltransferase reaction by addition of 12.5 μL of ^3H SAM in assay buffer (final volume=25 μL). The final concentrations of compounds ranged from a top default concentration of 80 μM down to 0.16 μM in ten 2-fold dilution steps. Reactions were carried out for 60 minutes and quenched with 20 μL per well of 1.96 mM SAH, 50 mM Tris pH 8.5, 200 mM EDTA. Stopped reactions were transferred to SAV coated Flash-plates (Perkin Elmer), incubated for 120 min, washed with a plate washer, and then read on the TopCount NXT (1.0 min/well) to measure the amount of methyl histone product formed during the reaction.
# EZH2 = EZH2 (Homo sapiens, UniProt Q15910); assay: EZH2 assay: rPRC2 methyltransferase, 3H SAM FlashPlate; assay type: biochemical; conditions: 0.2 μM 3H SAM, 2 nM EZH2
# Chain of EZH2 (Q15910 whole entry): as the sequence (Q15910 whole entry Y641N) above, with N641Y counted along it
# Chain of EZH2 (O75530 whole entry partner): as the sequence (O75530 whole entry partner) above
# Chain of EZH2 (Q15022 whole entry partner): as the sequence (Q15022 whole entry partner) above
# Method: as §1, §2
molecule,measurement,setting,value
"COc1cc(C)[nH]c(=O)c1CNC(=O)c1c(C)n(C(C)C2CCC(F)(F)CC2)c2ccccc12 (racemic) [Compound 304, (±)-1-(1-(4,4-difluorocyclohexyl)ethyl)-N-((4-methoxy-6-methyl-2-oxo-1,2-dihydropyridin-3-yl)methyl)-2-methyl-1H-indole-3-carboxamide]",EC50,[1]; Homo sapiens,< 0.4 µM
same,EC50,[2]; Homo sapiens,< 0.4 µM
same,IC50,Y641N EZH2,< 0.1 µM
same,IC50,"EZH2; EZH2 IC50, rPRC2, biotinylated oligonucleosomes",< 0.1 µM
"CCS(=O)(=O)N1CCC(C(C)n2c(C)c(C(=O)NCc3c(OC)cc(C)[nH]c3=O)c3ccccc32)CC1 (single isomer, unassigned) [Compound 345, (R or S)-1-(1-(1-(ethylsulfonyl)piperidin-4-yl)ethyl)-N-((4-methoxy-6-methyl-2-oxo-1,2-dihydropyridin-3-yl)methyl)-2-methyl-1H-indole-3-carboxamide]",EC50,[1]; Homo sapiens,< 0.4 µM
COc1cc(C)[nH]c(=O)c1CNC(=O)c1c(C)n(C(C)C2CCCNC2)c2ccccc12 (stereo not drawn) [Compound 315],EC50,[2],> 10 µM
"(R or S)-1-(1-(4-(isopropylsulfonyl)cyclohexyl)ethyl)-N-((4-methoxy-6-methyl-2-oxo-1,2-dihydropyridin-3-yl)methyl)-2-methyl-1H-indole-3-carboxamide [Compound 355]",EC50,[1],< 0.4 µM
same,IC50,"Y641N EZH2; Y641N EZH2 mutant enzyme, H3K27Me2 oligonucleosomes, read-out: Y641N EZH2 IC50",< 0.1 µM
same,IC50,"EZH2; rPRC2, biotinylated oligonucleosomes, read-out: EZH2 IC50",< 0.1 µM
